Tests used:
[1] = Crystal; DTA
[2] = Molar enthalpy of transition or fusion; settings: Crystal; DSC
[3] = molar heat capacity at constant pressure
[4] = Boiling temperature at pressure P; settings: 100 kPa; Glass; DTA

COc1cccc(OC)c1O [1,3-dimethoxy-2-hydroxybenzene]
Settings	Molar enthalpy of transition or fusion [kcal/mol]	Normal melting temperature [°C]
[1]	–	53.2
[2]	12	–

[3], 101.33 kPa, Liquid, DSC
Settings	molar heat capacity at constant pressure [J/K/mol]
333.16 K	317.27
373.15 K	328.21
413.14 K	333.46
453.12 K	347.18
493.1 K	357.35

Cc1ccc(C)o1 [2,5-dimethylfuran]
[3], 101.33 kPa, Liquid, DSC
Settings	molar heat capacity at constant pressure [J/K/mol]
213.15 K	159.28
253.15 K	163.99
293.15 K	170.63
333.15 K	184.95

Cc1cccc(CO)c1 [3-methylbenzyl alcohol]
Settings	Molar enthalpy of transition or fusion [kcal/mol]	Normal melting temperature [°C]
[1]	–	-8.8
[2]	3.24	–

[3], 101.33 kPa, DSC, Liquid
Settings	molar heat capacity at constant pressure [J/K/mol]
266.15 K	222.22
306.15 K	250.8
356.15 K	281.1
406.15 K	295.27
456.15 K	308.1

Cc1ccccc1C=O [2-methylbenzaldehyde]
Settings	Molar enthalpy of transition or fusion [kcal/mol]	Normal melting temperature [°C]
[1]	–	-39.7
[2]	2.44	–

[3], 101.33 kPa, Liquid, DSC
Settings	molar heat capacity at constant pressure [J/K/mol]
238.16 K	184.43
293.16 K	199.57
348.15 K	217.83
403.13 K	230.69
458.11 K	261.08

CCCOCC(C)O (stereo not given) [1-propoxy-2-propanol]
[3], 101.33 kPa, Liquid, DSC
Settings	molar heat capacity at constant pressure [J/K/mol]
193.19 K	237.41
223.15 K	247.93
273.16 K	271.09
323.16 K	290.12
373.15 K	314.7

CCOC(=O)Cc1ccccc1 [ethyl phenylacetate]
Settings	Molar enthalpy of transition or fusion [kcal/mol]	Normal melting temperature [°C]
[1]	–	-29
[2]	4.32	–

[3], 101.33 kPa, Liquid, DSC
Settings	molar heat capacity at constant pressure [J/K/mol]
253.15 K	271.75
293.15 K	288.83
333.15 K	292.77
373.15 K	306.89
413.15 K	326.27

CCCCCCC1CCCCC1 [hexylcyclohexane]
Settings	Molar enthalpy of transition or fusion [kcal/mol]	Normal melting temperature [°C]
[1]	–	-48.2
[2]	4.91	–

[3], 101.33 kPa, Liquid, DSC
Settings	molar heat capacity at constant pressure [J/K/mol]
228.16 K	292.03
288.16 K	330.24
348.14 K	361.21
408.13 K	408.85
468.09 K	463.72

Cc1cccc(C=O)c1 [3-methylbenzaldehyde]
Settings	Normal melting temperature [°C]
[1]	-48.4

[3], 101.33 kPa, Liquid, DSC
Settings	molar heat capacity at constant pressure [J/K/mol]
273.17 K	189.47
313.16 K	205.93
353.15 K	219.75
393.14 K	235.61
453.11 K	258.08

FC(F)C(F)(F)C(F)(F)C(F)(F)C(F)(F)C(F)(F)C(F)(F)C(F)(F)F [1H-perfluorooctane]
Settings	Molar enthalpy of transition or fusion [kcal/mol]	Normal melting temperature [°C]
[1]	–	-18.8
[2]	2.36	–

[3], 101.33 kPa, Liquid, DSC
Settings	molar heat capacity at constant pressure [J/K/mol]
258.16 K	446.11
273.16 K	458.71
298.16 K	480.14
323.16 K	494.84
373.14 K	526.76

C/C=C/c1ccc(O)c(OC)c1 [2-methoxy-4-(1E)-1-propen-1-yl-phenol]
Settings	Molar enthalpy of transition or fusion [kcal/mol]	Normal melting temperature [°C]
[1]	–	21.6
[2]	2.8	–

[3], 101.33 kPa, Liquid, DSC
Settings	molar heat capacity at constant pressure [J/K/mol]
298.15 K	326.92
323.15 K	336.45
373.15 K	348.43
423.15 K	381.6
473.15 K	387.19

CC(O)Cc1ccccc1 (stereo not given) [1-phenyl-2-propanol]
Settings	Boiling temperature at pressure P [°C]
[4]	-72.5

[3], 101.33 kPa, Liquid, DSC
Settings	molar heat capacity at constant pressure [J/K/mol]
273.15 K	282.05
323.15 K	311.06
373.15 K	329.31
423.15 K	345.52
473.15 K	354.78

Cc1ccc(C=O)o1 [5-methylfurfural]
Settings	Molar enthalpy of transition or fusion [kcal/mol]	Normal melting temperature [°C]
[1]	–	-32.6
[2]	2.76	–

[3], 101.33 kPa, Liquid, DSC
Settings	molar heat capacity at constant pressure [J/K/mol]
250.15 K	180.47
300.15 K	192.47
350.14 K	202.49
400.13 K	219.34
450.1 K	233.54

CC(=O)Oc1ccccc1 [phenyl ethanoate]
Settings	Molar enthalpy of transition or fusion [kcal/mol]	Normal melting temperature [°C]
[1]	–	-7
[2]	3.06	–

[3], 101.33 kPa, Liquid, DSC
Settings	molar heat capacity at constant pressure [J/K/mol]
253.15 K	220.42
293.15 K	224.78
333.15 K	240.03
373.15 K	255.41
413.15 K	269.44

CCC(O)c1ccccc1 (stereo not given) [1-phenyl-1-propanol]
Settings	Boiling temperature at pressure P [°C]	Normal melting temperature [°C]
[1]	–	-10.6
[4]	-74.3	–

[3], 101.33 kPa, Liquid, DSC
Settings	molar heat capacity at constant pressure [J/K/mol]
273.15 K	279.6
323.15 K	319.91
373.15 K	338.03
423.15 K	352.6
473.15 K	368.94

CC(C)c1ccccc1O [2-(1-methylethyl)phenol]
Settings	Molar enthalpy of transition or fusion [kcal/mol]	Normal melting temperature [°C]
[1]	–	12
[2]	2.62	–

molar heat capacity at constant pressure [J/K/mol], [3], 101.33 kPa
Settings	273.15 K	323.15 K	373.15 K	423.15 K	473.15 K
DSC, Liquid	–	307.38	321.55	337.89	354.37
Metastable liquid, DSC	281.92	–	–	–	–

Cc1ccc(C(=O)O)cc1 [4-methylbenzoic acid]
Settings	Molar enthalpy of transition or fusion [kcal/mol]	Normal melting temperature [°C]
[1]	–	179.0
[2]	5.14	–

[3], 101.33 kPa, Liquid, DSC
Settings	molar heat capacity at constant pressure [J/K/mol]
458.15 K	331.25
473.15 K	338.33
488.15 K	347.59
503.15 K	353.98
523.15 K	362.02

CC(CO)c1ccccc1 (stereo not given) [2-phenyl-1-propanol]
Settings	Boiling temperature at pressure P [°C]
[4]	-75.5

[3], 101.33 kPa, Liquid, DSC
Settings	molar heat capacity at constant pressure [J/K/mol]
273.15 K	273.34
323.15 K	300.98
373.15 K	325.91
423.15 K	341.98
473.15 K	351.78

Cc1ccc(C=O)cc1 [4-methylbenzaldehyde]
Settings	Molar enthalpy of transition or fusion [kcal/mol]	Normal melting temperature [°C]
[1]	–	-10.0
[2]	2.64	–

[3], 101.33 kPa, DSC, Liquid
Settings	molar heat capacity at constant pressure [J/K/mol]
273.17 K	191.4
313.16 K	204.25
353.15 K	216.27
393.14 K	232.37
453.11 K	250.99

CCCCCC(=O)CCCCC [undecan-6-one]
Settings	Molar enthalpy of transition or fusion [kcal/mol]	Normal melting temperature [°C]
[1]	–	13
[2]	7.49	–

[3], 101.33 kPa, Liquid, DSC
Settings	molar heat capacity at constant pressure [J/K/mol]
293.16 K	363.74
343.16 K	381.62
373.15 K	402.4
423.13 K	422.49
473.1 K	463.02

From the NIST ThermoML archive (doi:10.1021/acs.jced.7b01026)
